Measured values: the NIST ThermoML archive (doi:10.1021/je050503q)
± gives the expanded uncertainty stated by the source.

Experiment: xn = mol fraction of the nth substance listed
Settings: Liquid

COCCOCCOCCOC [2,5,8,11-tetraoxadodecane] + FCC(F)(F)F
Settings | mass density [kg/m3]
283.27 K, 1086 kPa, x2 = 0.9485 | 1245.33 ± 0.38
283.27 K, 2000 kPa, x2 = 0.9485 | 1248.44 ± 0.39
283.27 K, 3016 kPa, x2 = 0.9485 | 1251.83 ± 0.39
283.27 K, 4003 kPa, x2 = 0.9485 | 1255.03 ± 0.4
283.27 K, 5009 kPa, x2 = 0.9485 | 1258.22 ± 0.4
283.27 K, 6019 kPa, x2 = 0.9485 | 1261.33 ± 0.41
283.28 K, 1070 kPa, x2 = 0.9798 | 1255.94 ± 0.37
283.28 K, 1986 kPa, x2 = 0.9798 | 1259.56 ± 0.37
283.28 K, 2984 kPa, x2 = 0.9798 | 1263.39 ± 0.38
283.28 K, 4004 kPa, x2 = 0.9798 | 1267.2 ± 0.38
283.28 K, 4996 kPa, x2 = 0.9798 | 1270.8 ± 0.38
283.28 K, 5989 kPa, x2 = 0.9798 | 1274.3 ± 0.39
283.29 K, 1047 kPa, x2 = 0.9655 | 1251.56 ± 0.38
283.29 K, 1992 kPa, x2 = 0.9655 | 1255.06 ± 0.38
283.29 K, 2996 kPa, x2 = 0.9655 | 1258.69 ± 0.39
283.29 K, 3988 kPa, x2 = 0.9655 | 1262.16 ± 0.39
283.29 K, 4999 kPa, x2 = 0.9655 | 1265.62 ± 0.39
283.29 K, 5987 kPa, x2 = 0.9655 | 1268.91 ± 0.4
293.3 K, 1086 kPa, x2 = 0.9485 | 1215.38 ± 0.37
293.3 K, 2016 kPa, x2 = 0.9485 | 1219.06 ± 0.37
293.3 K, 2998 kPa, x2 = 0.9485 | 1222.84 ± 0.37
293.3 K, 3985 kPa, x2 = 0.9485 | 1226.51 ± 0.38
293.3 K, 5000 kPa, x2 = 0.9485 | 1230.18 ± 0.38
293.3 K, 6018 kPa, x2 = 0.9485 | 1233.75 ± 0.39
293.31 K, 1086 kPa, x2 = 0.9798 | 1222.61 ± 0.34
293.31 K, 2003 kPa, x2 = 0.9798 | 1226.87 ± 0.35
293.31 K, 2985 kPa, x2 = 0.9798 | 1231.29 ± 0.35
293.31 K, 4010 kPa, x2 = 0.9798 | 1235.72 ± 0.36
293.31 K, 4992 kPa, x2 = 0.9798 | 1239.84 ± 0.36
293.31 K, 6009 kPa, x2 = 0.9798 | 1243.96 ± 0.36
293.32 K, 1047 kPa, x2 = 0.9655 | 1219.81 ± 0.36
293.32 K, 2002 kPa, x2 = 0.9655 | 1223.94 ± 0.36
293.32 K, 2997 kPa, x2 = 0.9655 | 1228.11 ± 0.36
293.32 K, 3984 kPa, x2 = 0.9655 | 1232.11 ± 0.37
293.32 K, 5001 kPa, x2 = 0.9655 | 1236.1 ± 0.37
293.32 K, 5994 kPa, x2 = 0.9655 | 1239.88 ± 0.38
303.33 K, 1176 kPa, x2 = 0.9798 | 1187.73 ± 0.34
303.33 K, 1189 kPa, x2 = 0.9485 | 1184.28 ± 0.34
303.33 K, 1998 kPa, x2 = 0.9485 | 1188.03 ± 0.35
303.33 K, 2990 kPa, x2 = 0.9485 | 1192.49 ± 0.36
303.33 K, 3984 kPa, x2 = 0.9485 | 1196.79 ± 0.36
303.33 K, 5011 kPa, x2 = 0.9485 | 1201.05 ± 0.36
303.33 K, 5992 kPa, x2 = 0.9485 | 1205.02 ± 0.37
303.34 K, 2006 kPa, x2 = 0.9798 | 1192.33 ± 0.34
303.34 K, 3006 kPa, x2 = 0.9798 | 1197.65 ± 0.34
303.34 K, 4000 kPa, x2 = 0.9798 | 1202.73 ± 0.34
303.34 K, 4990 kPa, x2 = 0.9798 | 1207.56 ± 0.35
303.34 K, 6008 kPa, x2 = 0.9798 | 1212.35 ± 0.35
303.35 K, 1189 kPa, x2 = 0.9655 | 1186.88 ± 0.34
303.35 K, 2013 kPa, x2 = 0.9655 | 1191.11 ± 0.35
303.35 K, 2992 kPa, x2 = 0.9655 | 1195.95 ± 0.35
303.35 K, 4008 kPa, x2 = 0.9655 | 1200.76 ± 0.35
303.35 K, 4992 kPa, x2 = 0.9655 | 1205.25 ± 0.36
303.35 K, 5987 kPa, x2 = 0.9655 | 1209.62 ± 0.36
313.35 K, 1434 kPa, x2 = 0.9485 | 1152.06 ± 0.34
313.35 K, 1434 kPa, x2 = 0.9798 | 1151.46 ± 0.34
313.35 K, 2004 kPa, x2 = 0.9798 | 1155.29 ± 0.35
313.35 K, 2014 kPa, x2 = 0.9485 | 1155.26 ± 0.34
313.35 K, 2982 kPa, x2 = 0.9798 | 1161.59 ± 0.34
313.35 K, 2990 kPa, x2 = 0.9485 | 1160.47 ± 0.34
313.35 K, 3990 kPa, x2 = 0.9485 | 1165.56 ± 0.35
313.35 K, 4985 kPa, x2 = 0.9485 | 1170.41 ± 0.35
313.35 K, 4986 kPa, x2 = 0.9798 | 1173.51 ± 0.34
313.35 K, 5997 kPa, x2 = 0.9485 | 1175.14 ± 0.35
313.36 K, 1436 kPa, x2 = 0.9655 | 1152.44 ± 0.34
313.36 K, 3010 kPa, x2 = 0.9655 | 1161.91 ± 0.34
313.36 K, 3986 kPa, x2 = 0.9798 | 1167.71 ± 0.34
313.36 K, 5983 kPa, x2 = 0.9798 | 1179.03 ± 0.34
313.37 K, 2008 kPa, x2 = 0.9655 | 1155.97 ± 0.34
313.37 K, 4000 kPa, x2 = 0.9655 | 1167.49 ± 0.34
313.37 K, 5010 kPa, x2 = 0.9655 | 1172.9 ± 0.34
313.37 K, 5984 kPa, x2 = 0.9655 | 1177.91 ± 0.35
323.39 K, 1731 kPa, x2 = 0.9798 | 1112.96 ± 0.36
323.39 K, 1737 kPa, x2 = 0.9485 | 1118.26 ± 0.35
323.39 K, 1989 kPa, x2 = 0.9798 | 1115.09 ± 0.36
323.39 K, 1994 kPa, x2 = 0.9485 | 1119.99 ± 0.34
323.39 K, 3007 kPa, x2 = 0.9485 | 1126.53 ± 0.34
323.39 K, 3987 kPa, x2 = 0.9485 | 1132.49 ± 0.34
323.39 K, 4990 kPa, x2 = 0.9485 | 1138.29 ± 0.34
323.39 K, 5982 kPa, x2 = 0.9485 | 1143.72 ± 0.34
323.4 K, 3001 kPa, x2 = 0.9798 | 1123.14 ± 0.36
323.4 K, 4006 kPa, x2 = 0.9798 | 1130.6 ± 0.35
323.4 K, 4997 kPa, x2 = 0.9798 | 1137.51 ± 0.35
323.4 K, 5982 kPa, x2 = 0.9798 | 1144 ± 0.34
323.41 K, 1737 kPa, x2 = 0.9655 | 1116.04 ± 0.35
323.41 K, 1998 kPa, x2 = 0.9655 | 1118.03 ± 0.35
323.41 K, 3002 kPa, x2 = 0.9655 | 1125.33 ± 0.35
323.41 K, 4001 kPa, x2 = 0.9655 | 1132.15 ± 0.34
323.41 K, 4985 kPa, x2 = 0.9655 | 1138.48 ± 0.34
323.41 K, 6012 kPa, x2 = 0.9655 | 1144.72 ± 0.34
